Reference: patent EP1105728B1, “MODULATING MULTIPLE LINEAGE KINASE PROTEINS” (CEPHALON, INC., priority 1998, dated 2000)
Values joined by “and” are separate entries in the source; they are usually repeats but may differ in a detail not shown here. Identical values can stand only once. Marks after values point to notes of the source that are not given here.

What was measured:
MEKK1 = target: T1, MEKK1 (Homo sapiens, UniProt Q13233); test: JNK activity in Cos7 cells overexpressing HA-JNK1 with MEKK1; type: cell-based; conditions: 500 nM; Cos7 cells overexpressing HA-JNK1 with MEKK1 (Figure 15C)
T1 construct: expressed in transfected cells; host or cells: Cos7
T1 sequence (Q13233 whole entry, species assumed): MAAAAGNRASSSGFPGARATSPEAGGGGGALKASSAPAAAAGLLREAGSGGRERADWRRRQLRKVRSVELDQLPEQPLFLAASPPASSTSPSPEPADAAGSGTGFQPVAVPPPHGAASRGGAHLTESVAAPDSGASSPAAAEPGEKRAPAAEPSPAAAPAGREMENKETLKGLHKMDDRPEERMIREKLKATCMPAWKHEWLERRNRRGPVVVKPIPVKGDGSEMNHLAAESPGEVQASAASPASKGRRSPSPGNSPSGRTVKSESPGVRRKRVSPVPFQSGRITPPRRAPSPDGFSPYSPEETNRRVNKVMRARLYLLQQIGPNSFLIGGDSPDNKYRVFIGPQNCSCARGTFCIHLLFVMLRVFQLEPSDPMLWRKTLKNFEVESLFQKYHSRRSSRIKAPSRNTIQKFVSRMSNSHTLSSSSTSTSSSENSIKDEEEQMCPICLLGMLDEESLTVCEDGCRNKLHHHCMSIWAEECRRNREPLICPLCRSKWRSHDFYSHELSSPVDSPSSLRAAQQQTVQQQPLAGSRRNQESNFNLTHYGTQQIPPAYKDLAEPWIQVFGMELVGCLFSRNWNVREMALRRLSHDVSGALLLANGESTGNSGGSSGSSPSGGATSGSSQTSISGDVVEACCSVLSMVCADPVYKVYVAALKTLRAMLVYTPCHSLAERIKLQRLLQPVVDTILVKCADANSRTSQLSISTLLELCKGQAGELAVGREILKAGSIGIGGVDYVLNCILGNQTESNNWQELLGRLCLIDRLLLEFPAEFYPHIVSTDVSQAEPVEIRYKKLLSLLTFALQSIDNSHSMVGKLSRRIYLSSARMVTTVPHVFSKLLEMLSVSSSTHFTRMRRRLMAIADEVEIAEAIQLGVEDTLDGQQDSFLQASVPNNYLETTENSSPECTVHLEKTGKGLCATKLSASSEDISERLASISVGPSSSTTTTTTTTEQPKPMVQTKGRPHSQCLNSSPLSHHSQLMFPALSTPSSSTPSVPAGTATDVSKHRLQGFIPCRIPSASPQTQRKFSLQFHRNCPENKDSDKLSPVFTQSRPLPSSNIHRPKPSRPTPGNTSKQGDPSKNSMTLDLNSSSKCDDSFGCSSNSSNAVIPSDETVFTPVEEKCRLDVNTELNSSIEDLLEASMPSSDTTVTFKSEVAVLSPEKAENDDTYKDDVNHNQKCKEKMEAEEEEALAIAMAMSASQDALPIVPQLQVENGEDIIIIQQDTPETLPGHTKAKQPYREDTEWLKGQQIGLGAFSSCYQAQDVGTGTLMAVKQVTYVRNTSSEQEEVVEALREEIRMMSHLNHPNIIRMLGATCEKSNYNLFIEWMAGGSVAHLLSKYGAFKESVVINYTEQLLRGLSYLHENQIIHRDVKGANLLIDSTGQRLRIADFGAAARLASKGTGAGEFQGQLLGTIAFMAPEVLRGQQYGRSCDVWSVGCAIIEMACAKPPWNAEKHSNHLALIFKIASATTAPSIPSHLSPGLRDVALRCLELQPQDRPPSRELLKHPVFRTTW

[1] = tested on: hypoglossal motor neurons; test: Axotomy-induced motor neuronal dedifferentiation in the adult rat (hypoglossal nerve); type: in vivo; conditions: for ChAT-Positive Motor Neurons Average/Group / ChAT-Positive Motor Neurons Experimental/Control / ChAT-Positive Motor Neurons %: 7 days; for ChAT-Positive Motor Neurons Experimental/Control: counts ipsilateral/contralateral; for ChAT-Positive Motor Neurons Experimental/Control / ChAT-Positive Motor Neurons %: per animal
Description: The left hypoglossal nerve was transected in the neck of adult female Sprague-Dawley rats (120-180 g) under Neumbutol anesthesia, and 50 µl of Compound III-3 or its vehicle (5% Solutol™ HS 15) were applied to a piece of Gelfoam ™ (AJ Buck, Owings Mills, MD), then wrapped around the proximal end of the transected nerve. After 7 days, the animals were anesthetized and perfused with 4% paraformaldehyde in Sorenson's buffer, 0.07 M phosphate, pH 7.2. The brain stem was removed and 40- µm-thick serial coronal sections were cut on a cryostat (Chiu, et al., NeuroReport, 1994, 5, 693-696, which is incorporated herein by reference in its entirety). Every fifth section was processed for ChAT immunohistochemistry as previously described (Chiu, et al., J. Comp. Neurol., 1993, 328, 351-363, which is incorporated herein by reference in its entirety) using a 1:350 dilution of an anti-ChAT monoclonal antibody obtained from Chemicon. Cells that stained clearly above background were counted in stained sections; the number of enumerated cells was expressed as the ratio of the number of ChAT-immunoreactive cells on the axotomized side of the hypoglossal nucleus versus the number of immunoreactive cells on the control (uninjured) side.

MKK4 = test: MPTP model: phosphorylated MKK4 in the substantia nigra (immunoblot, ELISA); type: in vivo, mice; conditions: pretreatment; Compound III-3 1 mg/kg (Fig. 22c)
Description: MPTP was administered at a dose (40 mg/kg) that produces loss of striatal dopaminergic terminals and cell bodies in the substantia nigra. Tyrosine hydroxylase was used as a marker for dopamenergic nerve terminals in the substantia nigra. […] Since Compound III-3 is a known inhibitor of MLK3, activation of a downstream substrate of MLK3 was measured in MPTP- treated mice. Levels of phosphorylated MKK4 were measured using a phospho-MKK4 specific antibody (New England Biolabs, Beverly, MA) that recognizes the monophosphorylated form of MKK4 by either immunoblot (Fig. 22b) or ELISA (Fig. 22c). MPTP administration elevated levels of phosphorylated MKK4 in the substantia nigra by up to 5 fold over control levels (Fig. 22b). Peak elevations occurred 4 hrs after administration ofMPTP and coincided with peak CNS levels of MPP^+.

[2] = tested on: ciliary ganglion (CG) neurons; test: Survival of chick embryonic ciliary ganglion neurons; type: cell-based
Description: Paravertebral sympathetic ganglia (SG; embryonal day 12 (E12)), dorsal root ganglia (DRG;E9), and ciliary ganglia (CG;E8) were dissected from chick embryos at the indicated embryonic day as described in Lindsay, et al., Dev. Biol., 1985, 112, 319-328, which is incorporated herein by reference in its entirety. After trypsinization and dissociation, the nerve cell suspensions were plated onto polyomithine-laminin-coated culture dishes in Ham's F14 culture medium, supplemented with 10% horse serum. Immediately after plating, survival factors were added at the following concentrations: Nerve growth factor (NGF), 20 ng/ml; ciliary neutrophic factor (CNTF), 10 ng/ml. The cultures were maintained at 37° and 5% CO2 in a humidified environment.
Neurons were plated in 35 mm culture dishes with grids (Nunc). […] Cell survival was confirmed by vital staining with trypan blue (not shown).

lumbar motor neurons = test: Developmentally regulated motor neuronal death in the chick embryo; type: in vivo
Description: The present example is described in detail in Glicksman, et al., J. Neurobiol., 1998, 35, 361-370, which is incorporated herein by reference in its entirety. On E6, a window in the shell of chick eggs (Spafas, Preston, CT) was made and either vehicle (5% Solutol ™ HS 15, polyethylene glycol 660 hydroxysterate; BASF Aktiengesellschaft, Ludwigshafen, Germany (in phosphate-buffered saline, pH 7.2)) or the specified dose of Compound III-3 in the vehicle was applied directly onto the vascularized chorioallantoic membrane-once daily from E6 to E9 as described in Oppenheim, et al., Science, 1991, 251, 1616-1617, which is incorporated herein by reference in its entirety). Embryos were sacrificed at E10 and their spinal cords were removed, fixed in Carnoy's solution (10% glacial acetic acid, 60% absolute ethanol, 30% chloroform), processed for serial paraffin sections, and stained with thionin. Every 20th section of lumbar segments 1-8 was counted according to previously described criteria (Clarke, et al., Methods In Cell Biology: Cell Death, 1995, Schwart & Osborne, Eds., Academic Press, New York, pp.277-321, which is incorporated herein by reference in its entirety).

IL-2 = test: Induction of IL-2 in Jurkat cells by anti CD3 and anti CD28 antibodies (ELISA); type: cell-based; conditions: Homo sapiens
Description: Jurkat cells were grown in RPMI 1640 medium supplemented with 10% fetal bovine serum. TNF-α was from Promega and anti CD3 and anti CD28 antibodies were from Pharmigen. Jurkat experiments were done in 200 µl in a 96 well plate. IL-2 was measured with an ELISA kit purchased from Boehringer Mannheim. The antibodies to CD3 and CD28 were allowed to bind to the plastic of the 96 well plate (18 hr in PBS) prior to addition of the Jurkat Cells. Cells were treated with compounds 1 hr prior to adding to the antibody coated plate. Antibodies to CD3 and CD28 were used to activate the T cell receptor and induce IL-2. I1-2 was released from the Jurkat cells between 6 hr and 24 hr after initiation of induction (Fig. 23A). No IL-2 was made constitutively (Fig. 23A CNT). The effect of Compound III-3 (1 hr treatment with Compound III-3 prior to induction) on IL-2 induction was next assessed (Fig. 23B). A Compound III-3 concentration of 500 nM inhibited IL-2 induction by greater than 80% (Fig. 23B).

Compound: CCSCc1ccc2c(c1)c1c3c(c4c5cc(CSCC)ccc5n5c4c1n2C1CC(O)(C(=O)OC)C5(C)O1)CNC3=O (centres unmarked) [III-3]
- JNK pathway activated by MEKK1 (MEKK1): did not interfere with the JNK pathway
- ChAT-Positive Motor Neurons Average/Group ([1]; 3.6 µg in gel foam): 12.84*
- ChAT-Positive Motor Neurons Experimental/Control ([1]; 3.6 µg in gel foam): 55/420 and 72/572
- ChAT-Positive Motor Neurons % ([1]; 3.6 µg in gel foam): 13.10% and 12.59%
- ChAT-Positive Motor Neurons Average/Group ([1]; 25 µg in gel foam): 19.01*
- ChAT-Positive Motor Neurons Experimental/Control ([1]; 25 µg in gel foam): 95/597 and 142/642
- ChAT-Positive Motor Neurons % ([1]; 25 µg in gel foam): 15.91% and 22.12%
- ChAT-Positive Motor Neurons Average/Group ([1]; 50 µg in gel foam): 41.34*
- ChAT-Positive Motor Neurons Experimental/Control ([1]; 50 µg in gel foam): 278/637 and 188/484
- ChAT-Positive Motor Neurons % ([1]; 50 µg in gel foam): 43.85% and 38.84%
- ChAT-Positive Motor Neurons Average/Group ([1]; 100 µg in gel foam): 32.61*
- ChAT-Positive Motor Neurons Experimental/Control ([1]; 100 µg in gel foam): 465/920 and 235/784 and 178/770 and 182/679
- ChAT-Positive Motor Neurons % ([1]; 100 µg in gel foam): 50.54% and 29.98% and 23.12% and 26.80%
- ChAT-Positive Motor Neurons Average/Group ([1]; 200 µg in gel foam): 24.96*
- ChAT-Positive Motor Neurons Experimental/Control ([1]; 200 µg in gel foam): 99/461 and 159/559
- ChAT-Positive Motor Neurons % ([1]; 200 µg in gel foam): 21.48% and 28.44%
- weight loss, mortality, gross tissue damage ([1]; any doses tested, hypoglossal axotomy model): no associated weight loss, mortality, or gross tissue damage
- more ChAT-immunoreactive motor neurons compared to the axotomized, untreated control ([1]; maximally effective dose (50 µg), 7 days postaxotomy): 40%
- MPTP-mediated MKK4 phosphorylation (MKK4): partially inhibited
- concentration at which the survival effect reached a plateau ([2]; 10% serum (Fig. 16)): around 1 µM
- survival of CNTF-dependent ciliary ganglion (CG) neurons ([2]; after 24 h, CNTF 10 ng/ml, 10% serum): 76%
- CG survival ([2]; after four days): 58%
- motor neurons rescued (lumbar motor neurons; 1.2 and 1.8 µg/day onto the chorioallantoic membrane): 25%
- motor neurons that would normally die rescued (lumbar motor neurons; 2.3 and 7 µg/day onto the chorioallantoic membrane): Forty
- inhibition at 0.5 µM (IL-2; Jurkat, 500 nM, 1 hr treatment prior to induction (Fig. 23B)): > 80%
- IC50 (IL-2; Jurkat cells (Fig. 23C)): 139 nM
